According to patent US9340577B2, “HLA binding motifs and peptides and their uses” (priority 1992, dated 2016):
No end group written: not given here.

Legend:
Experiment in all cases: biochemical
DRB1*0901 = DRB1*0901 (Homo sapiens, UniProt P01903+P01911, A100R/A103E/D57H/D86V/F55Y/F60I/F76Y/I96F/K127E/L162R/M171V/P40D/Q125H/Q99R/R33Q/R42F/S133A/S66N/T210M/V115G/W38K/Y107V/Y59G/Y89S); assay type: binding
DRB5*0101 = DRB5*0101 (Homo sapiens, UniProt P01903+Q30154); details: Binding affinity DRB5 *0101
DRB1*1501 = DRB1*1501 (Homo sapiens, UniProt P01903+P01911); assay type: binding
DRB1*0802 = DRB1*0802 (Homo sapiens, UniProt P01903+P01911, A100R/A103L/A169T/F76Y/H45Y/I96F/K41T/L162R/M171V/P40S/Q125H/Q178H/Q39Y/Q99D/R218S/R42G/S66Y/V115G/W38E); assay type: binding
DRB1*1101 = DRB1*1101 (Homo sapiens, UniProt P01903+P01911, A100R/A169T/A87E/I96F/K41T/L162R/M171V/P40S/Q125H/Q178H/Q39Y/Q99D/R42S/S66Y/T262R/V115G/W38E); details: Binding affinity DRB1 *1101
DRB1*1201 = DRB1*1201 (Homo sapiens, UniProt P01903+P01911, A100R/A169T/D57E/D86V/F55L/H45Y/K41T/L162R/M171V/P40S/Q125H/Q178H/Q39Y/Q99D/R42G/S66L/T262R/V114A/V67L/W38E/Y59H/Y61H/Y89S); assay type: binding
DRB3*0101 = DRB3*0101 (Homo sapiens, UniProt P01903+P79483); assay type: binding
DRB1*0301 = DRB1*0301 (Homo sapiens, UniProt P01903+P01911, A100K/A102G/A103R/A169T/F55Y/I96L/K41T/L162R/M171V/P40S/Q125H/Q178H/Q39Y/R42S/S66N/T106N/T262R/W38E/Y61H); assay type: binding
DRB4*0101 = DRB4*0101 (Homo sapiens, UniProt P01903+P13762, G164S); assay type: binding
DRB1*1302 = DRB1*1302 (Homo sapiens, UniProt P01903+P01911, A100E/A169T/K41T/L162R/M171V/P40S/Q125H/Q178H/Q39Y/Q99D/R42S/S66N/T262R/V115G/W38E/Y61H); assay type: binding
DRB1*0405 = DRB1*0405 (Homo sapiens, UniProt P01903+P01911, A100R/A169T/D86S/F76Y/I96L/K127E/L162R/M171V/N62H/P40V/Q125Y/R42H/S133A/S149N/S66Y/V115G/V209L/W38E); assay type: binding
DR4w4 (DRB1*0401) = DR4w4 (DRB1*0401) (Homo sapiens, UniProt P01903+P01911, A100K/A169T/F76Y/I96L/K127E/L162R/M171V/N62H/P40V/Q125Y/R42H/S133A/S149N/S66Y/V115G/V209L/W38E); assay type: binding
DR1 (DRB1*0101) = DR1 (DRB1*0101) (Homo sapiens, UniProt P01903+P01911, A100R/D57E/F55L/F60I/F76Y/I96L/L162R/M171V/P40L/Q125E/R42F/V115G/Y59C); assay type: binding
DR7 (DRB1*0701) = DR7 (DRB1*0701) (Homo sapiens, UniProt P01903+P01911, A100R/A102G/A103Q/D57E/D86V/E43K/F76Y/K127E/L162R/M171V/P40G/Q125H/Q99D/R33Q/R42Y/R54Q/S133A/S66F/T210M/V115G/Y107V/Y59L/Y89S); assay type: binding

Sequence of DRB1*1302 (P01903 26-254 limits assumed, other chains not shown): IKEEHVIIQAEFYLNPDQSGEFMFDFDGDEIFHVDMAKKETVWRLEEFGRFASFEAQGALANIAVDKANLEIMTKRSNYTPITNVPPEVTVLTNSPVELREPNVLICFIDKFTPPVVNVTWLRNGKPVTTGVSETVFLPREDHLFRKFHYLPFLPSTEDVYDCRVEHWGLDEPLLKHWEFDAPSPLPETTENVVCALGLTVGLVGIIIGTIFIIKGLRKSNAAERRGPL
Sequence of DRB1*0301 (P01903 26-254 limits assumed, other chains not shown): as above
Sequence of DRB1*1101 (P01903 26-254 limits assumed, other chains not shown): as above

Row | Compound | IC50 (DRB1*0901) [µM] | IC50 (DRB5*0101) [µM] | IC50 (DRB1*1501) [µM] | IC50 (DRB1*0802) [µM] | IC50 (DRB1*1101) [µM] | IC50 (DRB1*1201) [µM] | IC50 (DRB3*0101) [µM] | IC50 (DRB1*0301) [µM] | IC50 (DRB4*0101) [µM] | IC50 (DRB1*1302) [µM] | IC50 (DRB1*0405) [µM] | IC50 (DR4w4 (DRB1*0401)) [µM] | IC50 (DR1 (DRB1*0101)) [µM] | IC50 (DR7 (DRB1*0701)) [µM]
1 | CC[C@H](C)[C@H](NC(=O)[C@H](CC(=O)O)NC(=O)[C@H](Cc1c[nH]cn1)NC(=O)[C@@H](NC(=O)[C@@H](NC(=O)[C@@H](NC(=O)[C@H](CCC(N)=O)NC(=O)[C@H](CC(C)C)NC(=O)[C@H](CCC(=O)O)NC(=O)[C@@H](NC(=O)[C@H](CS)NC(=O)[C@@H](N)CC(C)C)[C@@H](C)O)[C@@H](C)O)[C@@H](C)O)[C@@H](C)CC)C(=O)N[C@H](C(=O)N[C@@H](CC(C)C)C(=O)N[C@@H](CCC(=O)O)C(=O)O)[C@@H](C)CC [Peptide 1543.24] | > 20 | > 20 | > 20 | > 20 | > 20 | > 20 | > 20 | 0.08 | – | – | – | – | – | –
2 | KERHVNANKRFHNIM [Peptide 1543.59] | 2.85 | 0.502 | 12.9 | 1.23 | 0.083 | 0.26 | > 20 | 1.35 | 8.48 | 0.0052 | 0.026 | 0.055 | 0.413 | –
3 | PDGQAEQATSNYYIV [Peptide 1543.43] | 2.33 | > 20 | > 20 | > 20 | – | > 20 | > 20 | > 20 | > 20 | > 20 | 5.12 | – | > 20 | 0.051
4 | RREVYDFAFRDLCIV [Peptide 1543.25] | > 20 | 19.8 | > 20 | 9.03 | > 20 | 11 | > 20 | 11 | 2.46 | > 20 | – | 4.03 | > 20 | 0.073
5 | CC[C@H](C)[C@H](NC(=O)[C@@H]1CCCN1C(=O)[C@H](CC(N)=O)NC(=O)[C@@H](N)Cc1c[nH]c2ccccc12)C(=O)N[C@@H](CC(C)C)C(=O)N[C@@H](CC(C)C)C(=O)N[C@@H](Cc1c[nH]c2ccccc12)C(=O)N[C@@H](CCC(N)=O)C(=O)N1CCC[C@H]1C(=O)N[C@H](C(=O)N1CCC[C@H]1C(=O)N[C@H](C(=O)N[C@@H](Cc1c[nH]cn1)C(=O)N[C@H](C(=O)N[C@H](C(=O)O)C(C)C)[C@@H](C)O)C(C)C)[C@@H](C)CC [Peptide 68.0035] | – | – | – | > 20 | – | 5.69 | > 20 | > 20 | – | – | – | – | – | –
6 | NGVLQGITSWGPEPC [Peptide 68.0017] | > 20 | > 20 | – | > 20 | > 20 | > 20 | > 20 | 8.43 | – | > 20 | – | – | – | –
7 | LCVNSTASDLRTIQQ [Peptide 1543.15] | > 20 | > 20 | > 20 | 4.38 | – | 1.59 | > 20 | 6.23 | 2.11 | – | 0.49 | 0.063 | 1.58 | 0.723
8 | CC[C@H](C)[C@H](NC(=O)[C@@H]1CCCN1)C(=O)N[C@@H](CC(C)C)C(=O)N[C@@H](CC(C)C)C(=O)N[C@@H](Cc1c[nH]c2ccccc12)C(=O)N[C@@H](CCC(N)=O)C(=O)N1CCC[C@H]1C(=O)N[C@H](C(=O)N1CCC[C@H]1C(=O)N[C@H](C(=O)N[C@@H](Cc1c[nH]cn1)C(=O)N[C@H](C(=O)N[C@H](C(=O)N1CCC[C@H]1C(=O)N[C@@H](CC(C)C)C(=O)O)C(C)C)[C@@H](C)O)C(C)C)[C@@H](C)CC [Peptide 68.0037] | – | > 20 | – | > 20 | – | 2.37 | > 20 | > 20 | – | – | – | – | – | –
9 | CSCC[C@H](NC(=O)[C@H](CC(=O)O)NC(=O)[C@H](Cc1ccc(O)cc1)NC(=O)[C@H](CC(C)C)NC(=O)[C@@H]1CCCN1C(=O)[C@H](Cc1c[nH]cn1)NC(=O)[C@@H]1CCCN1C(=O)[C@H](Cc1ccccc1)NC(=O)[C@H](CO)NC(=O)[C@H](Cc1c[nH]cn1)NC(=O)[C@H](CO)NC(=O)[C@@H](NC(=O)[C@H](CCC(N)=O)NC(=O)[C@H](Cc1ccccc1)NC(=O)[C@@H](N)C(C)C)C(C)C)C(=O)O [Peptide 68.0070] | – | – | – | – | – | 2.48 | > 20 | > 20 | > 20 | – | – | – | – | –
10 | SEVYDFVFADLRIVY [Peptide 1543.48] | 0.033 | 2.35 | – | 4.04 | > 20 | 8.09 | 0.558 | 0.0057 | 1.42 | 0.046 | 2.92 | 0.62 | 0.412 | 0.051
11 | TRPRTLHELCEVLEE [Peptide 1543.42] | > 20 | > 20 | > 20 | > 20 | > 20 | > 20 | > 20 | > 20 | 2.59 | > 20 | 0.674 | – | 18 | > 20
12 | RFHNIMGRWTGRCSE [Peptide 1543.60] | 8.86 | 0.374 | 0.123 | 0.027 | 0.024 | 18.3 | 7.84 | 5.48 | 1.12 | – | 1.84 | 0.332 | 0.0056 | –
13 | CC[C@H](C)[C@H](NC(=O)CNC(=O)[C@H](Cc1ccc(O)cc1)NC(=O)[C@H](CC(C)C)NC(=O)[C@H](CO)NC(=O)[C@H](CC(C)C)NC(=O)[C@H](CC(C)C)NC(=O)[C@H](CO)NC(=O)[C@@H](N)CC(C)C)C(=O)N[C@@H](Cc1c[nH]cn1)C(=O)N[C@@H](CCCCN)C(=O)N[C@@H](CCC(N)=O)C(=O)N[C@@H](CCCCN)C(=O)N[C@@H](CCC(=O)O)C(=O)N[C@@H](CCCCN)C(=O)O [Peptide 68.0045] | – | – | – | – | – | 0.647 | > 20 | > 20 | – | > 20 | – | – | – | > 20
14 | CC(C)C[C@H](NC(=O)[C@H](CC(=O)O)NC(=O)[C@@H](NC(=O)[C@@H](NC(=O)[C@H](CCC(=O)O)NC(=O)[C@@H]1CCCN1C(=O)[C@H](CCC(N)=O)NC(=O)[C@H](CC(C)C)NC(=O)[C@H](CC(=O)O)NC(=O)[C@@H](N)CC(C)C)[C@@H](C)O)[C@@H](C)O)C(=O)N[C@@H](Cc1ccc(O)cc1)C(=O)N[C@@H](CS)C(=O)N[C@@H](Cc1ccc(O)cc1)C(=O)N[C@@H](CCC(=O)O)C(=O)N[C@@H](CCC(N)=O)C(=O)O [Peptide 1543.04] | > 20 | > 20 | > 20 | > 20 | > 20 | > 20 | > 20 | 0.59 | – | > 20 | > 20 | 1.9 | > 20 | > 20
15 | EYVLDLYPEPTDLYC [Peptide 1543.12] | > 20 | > 20 | 13 | > 20 | > 20 | 2.21 | 0.734 | 0.76 | 0.159 | > 20 | 5.88 | – | 9.08 | > 20
